Like-named read-outs stand apart in the source and are kept apart here.
Columns and labels:
Experiment in all cases: microbe, parasite or virus in culture
Conditions in all cases: Hepatitis C virus
[1] = test system: stable HCV 2a JFH-1 Rluc replicon cells (L31 present in NS5A); format: cell-based
[2] = test system: NS5A chimeric genotype 2a JFH-1 replicon with genotype 2a J6 strain NS5A gene (M31 present); format: cell-based, HCV
[3] = test system: NS5A chimeric genotype 2a JFH-1 replicon with genotype 2b MD2b-1 strain NS5A gene (M31 present); format: cell-based, HCV
Summary of the method: (§1)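 Con1-based 3a and 4a chimeras carried a Pi-RLuc reporter and were transiently transfected into Huh-Lunet cells; the JFH-1-based 2b chimera (RLuc-Neo) was used transiently or as stable replicon cells.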

[4] = test system: stable HCV 1a RLuc replicon cells (genotype 1a H77 replicon); format: cell-based
[5] = test system: stable HCV 1b RLuc replicon cells (genotype 1b Con1 replicon); format: cell-based
[6] = test system: NS5A chimeric genotype 1b Con1 replicon with genotype 4a ED43 strain NS5A gene; format: cell-based, HCV
[7] = test system: NS5A chimeric genotype 1b Con1 replicon with genotype 3a S52 strain NS5A gene; format: cell-based, HCV
Summary of the method: as §1

[8] = test system: 1a Pi-Rluc replicon with Q30R in genotype 1a NS5A; format: cell-based, HCV
Summary of the method: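 Q30R introduced by site-directed mutagenesis into genotype 1a Pi-RLuc replicon; RNA transiently transfected into Huh-7-derived cured-51 cells.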

Row | Structure (SMILES) | EC50 ([1]; read-out: 2a JFH) [nM] | EC50 ([1]; read-out: 2a JFH (nM)) [nM] | EC50 ([2]; read-out: 2a J6) [nM] | EC50 ([2]; read-out: 2a Jb (t) (nM)) [nM] | EC50 ([3]; read-out: 2b) [nM] | EC50 ([3]; read-out: 2b (t) (nM)) [nM] | EC50 ([4]; read-out: 1a) [nM] | EC50 ([4]; read-out: 1a (nM)) [nM] | EC50 ([5]; read-out: 1b (nM)) [nM] | EC50 ([6]; read-out: 4a) [nM] | EC50 ([6]; read-out: 4a (s) (nM)) [nM] | EC50 ([3]; read-out: 2b (s) (nM)) [nM] | further results
1 | CCC(C)[C@H](NC(=O)OC)C(=O)N1C[C@@H](C)CC1c1ncc(-c2ccc3c(c2)COc2cc4c(ccc5nc([C@@H]6CC(COC)CN6C(=O)[C@@H](NC(=O)OC)C(C)OC)[nH]c54)cc2-3)[nH]1 (stereo in doubt) [Example QD, Methyl {(2S,3R)-1-[(2S,4S)-2-(5-{2-[(2S,4S)-1-[N-(methoxycarbonyl)-O-methyl-L-allothreonyl]-4-(methoxymethyl)pyrrolidin-2-yl]-1,11-dihydroisochromeno[4′,3′:6,7]naphtho[1,2-d]imidazol-9-yl}-1H-imidazol-2-yl)-4-methylpyrrolidin-1-yl]-3-methyl-1-oxopentan-2-yl}carbamate] | < 1 | 0.013 | < 1 | 0.103 | < 1 | 0.193 | < 1 | 0.025 | 0.03 |  |  |  | 
2 | COC[C@H]1C[C@@H](c2nc3ccc4cc5c(cc4c3[nH]2)OCc2cc(-c3cnc([C@@H]4C[C@H](C)CN4C(=O)[C@@H](NC(=O)OC)[C@@H](C)OC)[nH]3)ccc2-5)N(C(=O)[C@@H](NC(=O)OC)[C@@H](C)OC)C1 [Example NK, Methyl {(2S,3R)-3-methoxy-1-[(2S,4S)-2-[9-(2-{(2S,4S)-1-[N-(methoxycarbonyl)-O-methyl-L-threonyl]-4-methylpyrrolidin-2-yl}-1H-imidazol-5-yl)-1,11-dihydroisochromeno[4′,3′:6,7]naphtho[1,2-d]imidazol-2-yl]-4-(methoxymethyl)pyrrolidin-1-yl]-1-oxobutan-2-yl}carbamate] | < 1 | 0.018 | < 1 | 0.056 | < 1 | 0.154 | < 1 | 0.049 | 0.081 |  |  |  | 
3 | COC(=O)N[C@H](C(=O)N1CCC[C@H]1c1ncc(-c2ccc3c(c2)COc2cc4c(ccc5nc([C@@H]6CCCN6C(=O)[C@H](NC(=O)C6CC6)c6ccccc6)[nH]c54)cc2-3)[nH]1)C(C)C [Compound 516] | < 1 | 0.009 | < 1 |  | < 1 |  | < 1 | 0.015 | 0.024 | < 1 | 0.025 | 0.013 | EC50 ([6]; read-out: 4a (t) (nM)): 0.01 nM; EC50 ([2]; read-out: 2a J6 (s) (nM)): 0.043 nM; EC50 ([7]; read-out: 3a): < 1 nM; EC50 ([7]; read-out: 3a (nM)): 0.005 nM
4 | COC(=O)N[C@H](C(=O)N1[C@@H](C)CC[C@H]1c1ncc(-c2ccc3c(c2)COc2cc4c(ccc5nc([C@@H]6C[C@H](C)CN6C(=O)[C@@H](NC(=O)OC)[C@@H](C)OC)[nH]c54)cc2-3)[nH]1)C(C)C [Example NL, Methyl {(2S)-1-[(2S,5S)-2-(5-{2-[(2S,4S)-1-{(2S,3R)-3-methoxy-2-[(methoxycarbonyl)amino]butanoyl}-4-methylpyrrolidin-2-yl]-1,11-dihydroisochromeno[4′,3′:6,7]naphtho[1,2-d]imidazol-9-yl}-1H-imidazol-2-yl)-5-methylpyrrolidin-1-yl]-3-methyl-1-oxobutan-2-yl}carbamate] | < 1 | 0.007 | < 1 | 0.043 | < 1 | 0.034 | < 1 | 0.011 | 0.013 |  |  |  | 
5 | COC(=O)N[C@H](C(=O)N1C[C@@H](COC(F)F)C[C@H]1c1nc2ccc3cc4c(cc3c2[nH]1)OCc1cc(-c2cnc(C3CCCN3C(=O)OC(C)(C)C)[nH]2)ccc1-4)C(C)C (stereo partly drawn) [Example PQ, tert-butyl 2-[5-(2-{(2S,4S)-4-[(difluoromethoxy)methyl]-1-[N-(methoxycarbonyl)-L-valyl]pyrrolidin-2-yl}-1,11-dihydroisochromeno[4′,3′:6,7]naphtho[1,2-d]imidazol-9-yl)-1H-imidazol-2-yl]pyrrolidine-1-carboxylate] | < 1 | 0.005 | < 1 | 0.025 | < 1 | 0.032 | < 1 | 0.014 | 0.014 | < 1 | 0.017 | 0.057 | EC50 ([6]; read-out: 4a (t) (nM)): 0.015 nM; EC50 ([8]; read-out: 1a Q30R): < 1 nM; EC50 ([8]; read-out: 1a Q30R (nM)): 0.106 nM; EC50 ([2]; read-out: 2a J6 (s) (nM)): 0.155 nM
6 | COC[C@H]1C[C@@H](c2nc3ccc4cc5c(cc4c3[nH]2)OCc2cc(-c3cnc([C@@H]4C[C@H](C(F)(F)F)CN4C(=O)[C@@H](NC(=O)OC)C(C)C)[nH]3)ccc2-5)N(C(=O)[C@H](NC(=O)OC)c2ccccc2)C1 [Example PJ, methyl {(1R)-2-[(2S,4S)-2-(9-{2-[(2S,4S)-1-{(2S)-2-[(methoxycarbonyl)amino]-3-methylbutanoyl}-4-(trifluoromethyl)pyrrolidin-2-yl]-1H-imidazol-5-yl}-1,11-dihydroisochromeno[4′,3′:6,7]naphtho[1,2-d]imidazol-2-yl)-4-(methoxymethyl)pyrrolidin-1-yl]-2-oxo-1-phenylethyl}carbamate] |  |  |  |  |  |  |  |  |  |  |  |  | EC50 ([1]; read-out: 2a JFH (nM) EC50): 0.058 nM; EC50 ([1]; read-out: 2a JFH EC50 range): < 1 nM; EC50 ([6]; read-out: 4a (s) (nM) EC50): 0.056 nM; EC50 ([6]; read-out: 4a EC50 range): < 1 nM; EC50 ([2]; read-out: 2a J6 EC50 range): < 1 nM; EC50 ([2]; read-out: 2a Jb (t) (nM) EC50): 0.136 nM; EC50 ([3]; read-out: 2b (s) (nM) EC50): 0.854 nM; EC50 ([3]; read-out: 2b (t) (nM) EC50): 0.335 nM; EC50 ([3]; read-out: 2b EC50 range): < 1 nM; EC50 ([4]; read-out: 1a (nM) EC50): 0.068 nM; EC50 ([4]; read-out: 1a EC50 range): < 1 nM; EC50 ([5]; read-out: 1b (nM) EC50): 0.088 nM
7 | COC(=O)N[C@H](C(=O)N1[C@@H]2C[C@@H]2C[C@H]1c1ncc(-c2ccc3c(c2)COc2cc4c(ccc5nc([C@@H]6C[C@H](COC(F)F)CN6C(=O)[C@H](NC(=O)OC)c6ccccc6)[nH]c54)cc2-3)[nH]1)C(C)C [Example MW] | < 1 | 0.012 | < 1 | 0.02 | < 1 | 0.043 | < 1 | 0.012 | 0.026 | < 1 | 0.011 | 0.123 | 
8 | COC[C@H]1C[C@@H](c2nc3ccc4cc5c(cc4c3[nH]2)OCc2cc(-c3cnc([C@@H]4CC[C@H](C)N4C(=O)[C@@H](NC(=O)OC)[C@@H](C)OC)[nH]3)ccc2-5)N(C(=O)[C@@H](NC(=O)OC)[C@@H](C)OC)C1 [Compound 646] |  |  |  |  |  |  |  |  |  |  |  |  | EC50 ([1]; read-out: 2a JFH (nM) EC50): 0.03 nM; EC50 ([1]; read-out: 2a JFH EC50 range): < 1 nM; EC50 ([6]; read-out: 4a (s) (nM) EC50): 0.034 nM; EC50 ([6]; read-out: 4a EC50 range): < 1 nM; EC50 ([2]; read-out: 2a J6 EC50 range): < 1 nM; EC50 ([2]; read-out: 2a Jb (t) (nM) EC50): 0.042 nM; EC50 ([3]; read-out: 2b (s) (nM) EC50): 0.262 nM; EC50 ([3]; read-out: 2b (t) (nM) EC50): 0.112 nM; EC50 ([3]; read-out: 2b EC50 range): < 1 nM; EC50 ([4]; read-out: 1a (nM) EC50): 0.058 nM; EC50 ([4]; read-out: 1a EC50 range): < 1 nM; EC50 ([5]; read-out: 1b (nM) EC50): 0.109 nM
9 | COC[C@H]1C[C@@H](c2nc3ccc4cc5c(cc4c3[nH]2)OCc2cc(-c3cnc([C@@H]4CCCN4C(=O)[C@@H](NC(=O)OC)[C@@H](C)OC)[nH]3)ccc2-5)N(C(=O)[C@H](NC(=O)OC)c2ccccc2)C1 [Example OT, Methyl {(1R)-2-[(2S,4S)-2-(9-{2-[(2S)-1-{(2S,3R)-3-methoxy-2-[(methoxycarbonyl)amino]butanoyl}pyrrolidin-2-yl]-1H-imidazol-5-yl}-1,11-dihydroisochromeno[4′,3′:6,7]naphtho[1,2-d]imidazol-2-yl)-4-(methoxymethyl)pyrrolidin-1-yl]-2-oxo-1-phenylethyl}carbamate] | < 1 | 0.005 | < 1 | 0.013 | < 1 | 0.012 | < 1 | 0.011 | 0.02 |  |  |  | EC50 ([8]; read-out: 1a Q30R): < 1 nM; EC50 ([8]; read-out: 1a Q30R (nM)): 0.041 nM; EC50 ([7]; read-out: 3a): < 1 nM; EC50 ([7]; read-out: 3a (nM)): 0.024 nM

— US8575135B2 (Gilead Sciences, Inc., priority 2011, dated 2013)
